Reference: patent US20250042880A1 (UNIVERSITY OF KENTUCKY RESEARCH FOUNDATION, priority 2021, published 2025)

What was measured:
[1] = tested on: mitochondrial complex I; experiment: Mitochondrial ETC complex activity using PMP-permeabilized cells; type: cell-based
Description: Mitochondrial ETC complex activity measurements using PMP-Measurements of mitochondrial ETC complex activity were performed using the Agilent Seahorse Assay with XF PMP (Agilent, Santa Clara, CA) according to the manufacturer's instructions. Mitochondrial assay solution (MAS) was prepared with 220 mM mannitol, 70 mM sucrose, 10 mM KH2PO4, 5 mM MgCl2, 2 mM HEPES, 1 mM EGTA, and 0.2% (w/v) fatty acid free BSA. Cells were gen Ly washed with MAS and cell media was replaced with MAS supplemented with 4 mM adenosine diphosphate (ADP), 10 mM pyruvate, and 1 nM PMP. After calibration, the test was prompμLy carried out by measuring baseline with two cycles of 0.5 min mixing, 0.5 min waiting, and 2 min measuring. Following the baseline measurements, DMSO, test compounds or 2 μM rotenone, 10 mM succinate, 2 μM antimycin A, and a combination of 10 mM ascorbate and 100 μM TMPD were sequentially injected. The experiment data were then normalized to cell counts using Biotek Cytation 1 (BioTek Instruments, Winooski, VT, USA).
Mitochondrial ETC complex activity was measured using the Agilent Seahorse Assay with XF permeabilizer (PMP; Agilent) in compliance with the manufacturer's protocol. […] Following calibration, the baseline OCR was measured with cycles of 0.5-minute mixing, 0.5-minute waiting, and 2-minute measuring to perform the test. […]

[2] = tested on: A2780 ovarian cancer cells; conditions: cited from earlier work
[3] = tested on: LS174T xenografts; experiment: LS174T xenografts in SCID mice; type: in vivo, mouse
Description: In vivo evaluation of anti-cancer activity in LS174T xenografts—The mouse studies were conducted with the approval of the University of Kentucky Institutional Animal Care and Use Committee (2020-3531). All methods were carried out in compliance with the relevant guidelines and regulations according to protocols. The LS174T cells in exponential growth phase were trypsinized and resuspended in 50% Matrigel (Corning, Glendale, Arizona). Cells (1.2×10^6) were subcutaneously injected on the lower flanks of severe combined immunodeficient mice. The tumor volumes were calculated based on the formula Length×width^2/2. When tumors reached an average volume of 100 mm^3, the mice were divided into control and treatment groups (3 male and 3 female mice/group, two tumors on each mouse). After tumors were established, BAY-876 was given to the mice by gavage feeding to the BAY-876 group at the dose of 3 mg/kg/day. DBI-1 was daily intraperitoneally (i.p.) administered to the DBI-1 group at dose of 40 mg/kg mouse body weight. Mice in the combination treatment group were administered both oral BAY-876 at the dose of 3 mg/kg/day and i.p. DBI-1 at dose of 40 mg/kg mouse body weight. Tumors and mouse weights were measured every three days and the experiment was stopped at day 12. Tumors were isolated and fixed in 10% neutral buffered formalin. Tumor sections were analyzed with H&E and Ki-67 staining at Markey Cancer Center's Biospecimen Procurement and Translational Pathology Shared Resource Facility (BPTP SRF).

[4] = tested on: OVCAR-3 cells; conditions: growth inhibition; cited from earlier work
[5] = administered in vivo; cited from earlier work
[6] = tested on: SKOV-3 ovarian cancer xenograft; conditions: 4.5 mg/kg/day for 4 weeks; cited from earlier work
[7] = tested on: BT549, MDA-MB-436 and HCC70; conditions: 3 μM; cited from earlier work
[8] = biological target: T1, GLUT1 (Homo sapiens, UniProt P11166); conditions: cited from earlier work
T1 sequence (P11166 1-492): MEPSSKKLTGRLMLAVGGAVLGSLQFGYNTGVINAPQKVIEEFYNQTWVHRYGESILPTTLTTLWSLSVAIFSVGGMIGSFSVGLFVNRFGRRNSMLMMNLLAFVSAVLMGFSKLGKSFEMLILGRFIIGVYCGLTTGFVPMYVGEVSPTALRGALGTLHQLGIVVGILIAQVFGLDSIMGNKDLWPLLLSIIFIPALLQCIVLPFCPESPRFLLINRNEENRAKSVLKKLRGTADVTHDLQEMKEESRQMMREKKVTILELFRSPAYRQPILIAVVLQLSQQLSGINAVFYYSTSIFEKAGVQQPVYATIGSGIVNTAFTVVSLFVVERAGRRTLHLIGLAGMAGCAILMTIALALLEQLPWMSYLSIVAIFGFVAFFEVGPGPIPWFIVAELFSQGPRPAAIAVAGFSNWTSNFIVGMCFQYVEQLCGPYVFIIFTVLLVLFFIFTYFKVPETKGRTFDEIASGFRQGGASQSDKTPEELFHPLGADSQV

[9] = tested on: DLD-1 CRC cells; conditions: cited from earlier work

| Compound | ETC complex inhibited (conclusion of Seahorse assays) ([1]; ETC complex-specific inhibitors and PMP-permeabilized cells) | pyruvate/NADH-linked respiration ([1]; PMP-permeabilized CRC cells) | sensitivity of A2780 ovarian cancer cells [2] | tumor growth ([3]; BAY-876 3 mg/kg/day oral, DBI-1 40 mg/kg/day i.p., two weeks) | toxicity based on mice body weight growth rate ([3]; BAY-876 3 mg/kg/day, DBI-1 40 mg/kg/day) | IC50 [4] [nM] | oral availability [5] | average weight loss compared to the control group [6] [%] | reduction of average tumor volumes [6] [%] | reduction of tumor weights [6] [%] | growth of TNBC cell lines BT549, MDA-MB-436 and HCC70 [7] | potency for the GLUT1 transporter [8] | selectivity factor for GLUT1 in comparison with GLUT2, GLUT3 and GLUT4 [8] | IC50 [9] [nM] |
| --- | --- | --- | --- | --- | --- | --- | --- | --- | --- | --- | --- | --- | --- | --- |
| O=c1c(-c2ccc(Cl)c(Cl)c2)coc2cc(OCCN3CCN(CCO)CC3)ccc12 [DBI-6, 3-(3,4-dichlorophenyl)-7-(2-(4-(2-hydroxyethyl)piperazin-1-yl)ethoxy)-4H-chromen-4-one] | complex I inhibitor | reduced pyruvate/NADH-linked respiration | – | – | – | – | – | – | – | – | – | – | – | – |
| Cc1c(NC(=O)c2cc(C(N)=O)nc3cc(F)ccc23)c(C(F)(F)F)nn1Cc1ccc(C#N)cc1 [BAY-876, N^4-[1-(4-cyanobenzyl)-5-methyl-3-(trifluoromethyl)-1H-pyrazol-4-yl]-7-fluoroquinoline-2,4-dicarboxamide] | – | – | resistant | inhibited tumor growth | No significant toxicity | 60 | orally available | 18 | 68 | 66 | did not inhibit the growth | single-digit, nanomolar | > 100 | 2 |
